Patent publication US20260076937A1, “COMPOSITION FOR PREVENTING OR TREATING AUTOIMMUNE DISEASES COMPRISING A BCAT1 INHIBITOR” (Seoul National University R&DB Foundation, priority 2024, published 2026)
“Also recorded” adds a separate entry of the source.

Tests used:
EAE mice = test: Experimental autoimmune encephalomyelitis (EAE) model; type: in vivo, mouse
HIF-1α [1] = test: RT-qPCR of HIF-1α and HIF-1α target genes in CD4+ memory T cells; type: cell-based, human
Method: Total RNA was prepared using TRIzol reagent (Life Technologies, Grand Island, NY), followed by cDNA synthesis (Promega, Madison, WI), followed by real-time quantitative RT-PCR with a CFX system (Bio-Rad, Hercules, CA) using SensiFAST SYBR® Lo-ROX (Bioline, London. UK). Gene expression levels were normalized for […] expression using the comparative CT method (ΔΔCT).

HIF-1α [2] = test: HIF-1α expression in TCR-stimulated mouse iLN cells; type: cell-based; settings: Bi2 10 μM, 24 hours
Method: (§1) Blocking BCAT1 with Bi2 attenuates Th17 differentiation in mice. In FIG. 13A mRNA expression of slc7a5 and bcat1 in mouse inguinal LN (iLN) cells was analyzed by RT-qPCR at 24 hours after TCR stimulation with anti-CD3/CD28 antibody (n=5). In FIG. 13B protein expression of BCAT1 in mouse inguinal LN cells was analyzed at 24 hours after stimulation of TCR with anti-CD3/CD28 antibody (n=5). In FIGS. 13C to 13D, mouse CD4^+ naive T cells derived from iLN were differentiated under […] or Th1 polarization conditions for 5 days in the presence of Bi2 (10 μM). The amounts of IFN-γ (c) and IL-17A (d) in the culture supernatants of Th1 and Th17 cells (n=5) are shown. In FIG. 13E, the cells of mouse iLN were stimulated with anti CD3/CD28 antibody in the presence of Bi2 (10 μM) for 24 hours. Cell lysates were immunoblotted for HIF-1α (n=3 independent experiments). Cells treated with COCl2 served as a positive control for HIF-1α. […] FIG. 13F is a representative histogram plot of intracellular HIF-1α in cells of mouse iLN. Cells were stimulated with anti CD3/CD28 antibody in the presence of Bi2 (10 μM) for 24 hours. […] The significance was indicated as *=p<0.05, **=p<0.01, ***=p<0.001, according to Mann-Whitney U test (a, c, d, f) or the two-tailed non-pair t test (b, e)).

HIF-1α [3] = test: HIF-1α immunoblot in TCR-stimulated CD4+ memory T cells; type: cell-based, human; settings: TCR-stimulated CD4+ memory T cells; Bi2 10 μM, CoCl2 100 μM, VH298 100 μM, MG132 5 μM
Method: (§2) Cells were cultured in radioimmunoprecipitation assay (RIPA) buffer (150 mM NaCl, 10 mM Na2HPO4, pH 7.2, 1% Nonidet P-40, 0.5% deoxycholate) containing phenylmethylsulfonyl fluoride (PMSF; Millipore Sigma, Burlington, MA), EDTA, protease and phosphatase inhibitor cocktail (Thermo Fisher Scientific) to extract total protein. Proteins were separated on 8-10% SDS-polyacrylamide gels and blotted onto polyvinylidene difluoride (PVDF) membranes (Bio-Rad, Hercules, CA) followed by 5% BSA in Tris buffered saline (TBS) with 0.1% Tween 20 and blocked for 1 hour. Membranes were cultured overnight with anti-human SLC7A5, anti-BCAT, anti-phospho-p70S6K, anti-p70S6K, anti-HIF-1α (all provided by Cell Signaling Technology, Danvers, MA) primary antibodies at 4° C., followed by culture with HRP-conjugated secondary antibodies for 1 hour at room temperature. Membranes were developed using SuperSignal West Femto Maximum Sensitivity Substrate or SuperSignal West Pico PLUS Chemiluminescent Substrate system (Thermo Fisher Scientific).

[4] = tested on: human CD4+ memory T cells; test: scRNA-seq analysis of CD4+ memory T cells; type: cell-based; settings: Bi2 10 μM
Method: Freshly purified CD4^+ memory T-cells were stimulated for 72 hours with anti-CD3/CD28 coated microbeads in the absence or presence of Bi2. Samples from four different donors were multiplexed for 30 minutes at 4° C. with a hashtag oligo. Totalseq™ anti-human hashtag antibody (Biolegend, USA) was then used to perform in three experimental conditions (TCR-stimulated cells with Bi2, TCR-stimulated cells without Bi2, and cells without TCR stimulation). Tagged cells were pooled and loaded into a Chromium system (10× Genomics, Pleasanton, CA) and encapsulated into a single droplet targeting about 40,000 cells for each GEM (Gel Beads-in-emulsion). Chromium Single Cell 5′ Kit (10× Genomics) was used to generate scRNA-seq and TCR libraries according to the manufacturer's instructions. Demultiplexing and read alignment to the bound human genome was performed using Cell Ranger (v6.1.2).

mTORC1 = test: Phospho-p70-S6K immunoblot (mTORC1 activity) in CD4+ memory T cells; type: cell-based, human; settings: about 1-2 hours after stimulation
Method: as §2

mouse CD4+ naive T cells = test: Th17/Th1 polarization of mouse CD4+ naive T cells from iLN; type: cell-based; settings: Bi2 10 μM
Method: as §1

[5] = tested on: TCR-stimulated human CD4+ naive T cells; test: Cytokine ELISA of culture supernatants, CD4+ naive T cells; type: cell-based; settings: TCR stimulation 3 days
[6] = tested on: human CD4+ naive and memory T cells; test: CFSE dilution proliferation assay; type: cell-based; settings: anti-CD3/CD28 microbeads; Bi2 10 μM, JPH203 10 μM, LβhL 400 mg/L
Method: (§3) To analyze T cell proliferative capacity, purified isolated human CD4+ T cells were labeled with 1 μM carboxyfluorescein succinimidyl ester (CFSE; Invitrogen, Waltham, MA, USA) and then stimulated with anti-CD3/CD28 antibody coated microbeads for 4 days at 37° C. Cells were stained with 7AAD (BD Biosciences) for 10 minutes to distinguish dead cells and the extent of CFSE dilution in 7AAD-cells was measured by BD LSRFortessa to analyze proliferative capacity. Antibodies listed in Table 2 and previously known BD LSRFortessa cell analyzers were used.

[7] = tested on: human CD4+ memory T cells; test: Cholesterol analysis in cell lysates; type: cell-based; settings: TCR stimulation 3 days; Bi2 10 μM, statin 10 μM
Method: Total cholesterol amount in cultured cells was determined using a fluorometric Amplex™ Red Cholesterol Assay Kit (Thermo Fisher Scientific) according to the manufacturer's instructions.

human CD4+ naive T cells = test: Cell viability by 7-AAD staining; type: cell-based; settings: Bi2 10 μM, 4 days
Method: as §3

[8] = Bi2 10 mg/kg or LβhL 1 g/kg i.p.
[9] = Bi2 10 mg/kg or LβhL 1 g/kg i.p., 10 mg/kg

O=C(NNS(=O)(=O)c1ccccc1C(F)(F)F)c1cc2cc(Cl)ccc2o1 [Bi2, BCATc inhibitor 2]
HIF-1α expression in SCMC (immunoblot) (EAE mice; Bi2 10 mg/kg i.p.): decreased
absolute number of Th17 cells co-producing IFN-γ/IL-17A (EAE mice; Bi2 10 mg/kg i.p.): significantly reduced
absolute number of spinal cord mononuclear cells (SCMC) (EAE mice; Bi2 10 mg/kg i.p.): significantly lower
proportion of CD4+ T-cells in SCMC (EAE mice; Bi2 10 mg/kg i.p.): significantly lower
relative proportion of Th17 cells co-producing IFN-γ/IL-17A (EAE mice; Bi2 10 mg/kg i.p.): did not change
cell infiltration in spinal cord (EAE mice; [8]): decrease
nerve damage, spinal cord histology (EAE mice; [8]): decrease
CD4+ T-cells producing IL-17A in spinal cord infiltrates and draining LN (EAE mice; [9]): preferentially reduced
HIF-1α expression in CD4+ T-cells of spinal cord (intracellular staining) (EAE mice; [9]): preferentially in CD4+ T-cells in SCMC but not in CD11b+F4/80+ macrophages; also recorded: reduced
EAE clinical score / severity (EAE mice; i.p. three times a week for 14 days, Bi2 10 mg/kg, LβhL 1 g/kg, 10 mg/kg): significantly lower; also recorded: alleviating the severity of disease
HIF-1α mRNA expression (HIF-1α [1]; 4 hours after TCR stimulation): reduced
expression of SCL2A1, LDHA and PGK1 mRNA (HIF-1α target genes) (HIF-1α [1]; 72 hours of TCR stimulation): reduced
TCR-induced HIF-1α expression in mouse LN T cells (HIF-1α [2]): reduced
HIF-1α protein expression (HIF-1α [3]): significantly inhibited
HIF1A expression in activated Th17 cells ([4]; 72 hours TCR stimulation): down-regulated
activated Th17 cell population (clusters 8, 13, 15) ([4]; 72 hours TCR stimulation): decreased
T-cell activation, cytokine signaling and cytokine production pathways in activated Th17 subset ([4]; pathway enrichment of DEGs): decrease
S6K phosphorylation (mTORC1): inhibitory effect
IFN-γ production (mouse CD4+ naive T cells; Th1 polarization 5 days): failed to inhibit
differentiation of Th17 cells (IL-17A) (mouse CD4+ naive T cells; Th17 polarization 5 days): preferentially inhibited; also recorded: attenuates
IL-2 production by CD4+ naive T cells [5]: not affected
proliferation (CFSE dilution) [6]: no effect on proliferation
intracellular cholesterol [7]: slight increase; also recorded: significantly increased
viability of activated CD4+ naive T cells (human CD4+ naive T cells): no significant effect
